Key:
Assay in all cases: KINOMEscan (ScanMAX) kinase profiling
Type in all cases: binding
panel of 468 kinases [1] = molecular target: T1, panel of 468 kinases (Homo sapiens, UniProt Q9UPZ9); details: ICK; 1 μM; read-out: % control
T1 construct: purchased KINOMEscan (ScanMAX) service
T1 sequence (Q9UPZ9 1-632): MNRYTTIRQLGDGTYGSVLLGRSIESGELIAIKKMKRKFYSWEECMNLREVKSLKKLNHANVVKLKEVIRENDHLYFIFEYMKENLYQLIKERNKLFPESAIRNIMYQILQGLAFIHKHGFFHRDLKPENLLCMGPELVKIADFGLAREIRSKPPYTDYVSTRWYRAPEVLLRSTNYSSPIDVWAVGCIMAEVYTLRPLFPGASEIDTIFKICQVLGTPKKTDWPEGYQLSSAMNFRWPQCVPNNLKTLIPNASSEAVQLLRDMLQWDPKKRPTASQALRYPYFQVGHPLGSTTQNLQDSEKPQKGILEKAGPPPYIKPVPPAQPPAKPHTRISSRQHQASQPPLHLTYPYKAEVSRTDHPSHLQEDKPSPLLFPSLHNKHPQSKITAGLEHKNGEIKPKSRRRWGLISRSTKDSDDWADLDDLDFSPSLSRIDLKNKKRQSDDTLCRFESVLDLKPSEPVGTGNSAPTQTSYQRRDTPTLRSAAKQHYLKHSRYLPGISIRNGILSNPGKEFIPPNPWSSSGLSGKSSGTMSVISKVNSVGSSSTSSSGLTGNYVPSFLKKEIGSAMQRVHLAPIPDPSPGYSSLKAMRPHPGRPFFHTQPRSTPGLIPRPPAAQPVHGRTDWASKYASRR

panel of 468 kinases [2] = molecular target: T2, panel of 468 kinases (Homo sapiens, UniProt Q9NRM7); details: LATS2; 1 μM; read-out: % control
T2 construct: purchased KINOMEscan (ScanMAX) service
T2 sequence (Q9NRM7 1-1088): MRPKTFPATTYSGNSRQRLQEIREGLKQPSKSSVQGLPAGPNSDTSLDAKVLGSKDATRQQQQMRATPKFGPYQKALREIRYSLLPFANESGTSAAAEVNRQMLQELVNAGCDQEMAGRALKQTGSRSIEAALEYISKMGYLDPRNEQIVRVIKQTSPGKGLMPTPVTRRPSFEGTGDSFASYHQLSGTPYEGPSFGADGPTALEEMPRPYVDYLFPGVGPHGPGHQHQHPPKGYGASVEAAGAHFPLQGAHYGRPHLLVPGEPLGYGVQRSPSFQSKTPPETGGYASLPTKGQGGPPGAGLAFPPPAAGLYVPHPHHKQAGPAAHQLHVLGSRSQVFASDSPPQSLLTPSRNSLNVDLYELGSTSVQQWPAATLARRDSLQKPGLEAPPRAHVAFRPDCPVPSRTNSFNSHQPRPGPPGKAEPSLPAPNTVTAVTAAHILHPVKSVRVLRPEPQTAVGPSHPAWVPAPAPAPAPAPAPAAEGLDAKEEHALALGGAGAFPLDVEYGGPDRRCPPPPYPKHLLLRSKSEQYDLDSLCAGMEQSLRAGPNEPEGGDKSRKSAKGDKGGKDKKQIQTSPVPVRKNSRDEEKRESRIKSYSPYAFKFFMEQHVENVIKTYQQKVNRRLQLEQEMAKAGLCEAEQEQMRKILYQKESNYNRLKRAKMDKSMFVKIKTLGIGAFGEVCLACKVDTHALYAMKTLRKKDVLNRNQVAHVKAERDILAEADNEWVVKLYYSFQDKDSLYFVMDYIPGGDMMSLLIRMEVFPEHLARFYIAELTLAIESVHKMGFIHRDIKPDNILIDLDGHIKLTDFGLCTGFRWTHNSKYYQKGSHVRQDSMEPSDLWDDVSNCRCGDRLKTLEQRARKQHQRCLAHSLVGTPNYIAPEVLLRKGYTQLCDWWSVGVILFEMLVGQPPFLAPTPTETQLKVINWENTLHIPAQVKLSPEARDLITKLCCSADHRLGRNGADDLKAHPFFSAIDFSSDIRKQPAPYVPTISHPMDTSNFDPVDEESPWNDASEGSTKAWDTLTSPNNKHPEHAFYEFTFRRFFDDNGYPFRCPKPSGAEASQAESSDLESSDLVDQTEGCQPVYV

panel of 468 kinases [3] = molecular target: T3, panel of 468 kinases (Homo sapiens, UniProt P78356); details: PIP5K2B; 1 μM; read-out: % control
T3 construct: purchased KINOMEscan (ScanMAX) service
T3 sequence (P78356 1-416): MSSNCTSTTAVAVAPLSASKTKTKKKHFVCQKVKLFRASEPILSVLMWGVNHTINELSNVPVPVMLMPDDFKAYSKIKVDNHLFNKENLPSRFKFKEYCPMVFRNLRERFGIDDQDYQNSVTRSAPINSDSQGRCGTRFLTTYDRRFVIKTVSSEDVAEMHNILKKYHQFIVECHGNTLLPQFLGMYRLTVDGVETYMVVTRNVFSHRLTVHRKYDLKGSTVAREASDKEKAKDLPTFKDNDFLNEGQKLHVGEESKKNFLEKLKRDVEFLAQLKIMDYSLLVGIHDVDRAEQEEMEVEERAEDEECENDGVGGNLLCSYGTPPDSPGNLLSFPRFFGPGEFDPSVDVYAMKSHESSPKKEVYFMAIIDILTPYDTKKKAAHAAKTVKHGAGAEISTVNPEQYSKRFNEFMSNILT

panel of 468 kinases [4] = molecular target: T4, panel of 468 kinases (Homo sapiens, UniProt Q04759); details: PRKCQ; 1 μM; read-out: % control
T4 construct: purchased KINOMEscan (ScanMAX) service
T4 sequence (Q04759 whole entry): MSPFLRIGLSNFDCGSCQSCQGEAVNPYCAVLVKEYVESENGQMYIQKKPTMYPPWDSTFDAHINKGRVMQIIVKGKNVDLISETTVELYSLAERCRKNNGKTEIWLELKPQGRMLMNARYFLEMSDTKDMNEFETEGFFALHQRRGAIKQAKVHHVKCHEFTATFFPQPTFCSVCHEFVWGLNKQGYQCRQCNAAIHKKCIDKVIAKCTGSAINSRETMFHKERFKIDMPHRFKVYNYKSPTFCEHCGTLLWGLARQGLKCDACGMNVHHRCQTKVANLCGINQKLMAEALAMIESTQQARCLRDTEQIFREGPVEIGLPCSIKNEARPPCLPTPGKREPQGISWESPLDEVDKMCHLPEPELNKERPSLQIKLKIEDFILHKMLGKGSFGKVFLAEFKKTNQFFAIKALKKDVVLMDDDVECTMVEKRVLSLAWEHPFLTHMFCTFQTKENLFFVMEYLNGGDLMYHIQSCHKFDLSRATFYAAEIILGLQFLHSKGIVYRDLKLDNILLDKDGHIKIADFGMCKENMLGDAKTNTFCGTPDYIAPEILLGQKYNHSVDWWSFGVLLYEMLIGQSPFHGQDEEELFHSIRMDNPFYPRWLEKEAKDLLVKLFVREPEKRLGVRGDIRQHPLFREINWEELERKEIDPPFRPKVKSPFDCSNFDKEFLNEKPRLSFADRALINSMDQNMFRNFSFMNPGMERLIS

panel of 468 kinases [5] = molecular target: T5, panel of 468 kinases (Homo sapiens, UniProt Q16513); details: PKN2; 1 μM; read-out: % control
T5 construct: purchased KINOMEscan (ScanMAX) service
T5 sequence (Q16513 whole entry): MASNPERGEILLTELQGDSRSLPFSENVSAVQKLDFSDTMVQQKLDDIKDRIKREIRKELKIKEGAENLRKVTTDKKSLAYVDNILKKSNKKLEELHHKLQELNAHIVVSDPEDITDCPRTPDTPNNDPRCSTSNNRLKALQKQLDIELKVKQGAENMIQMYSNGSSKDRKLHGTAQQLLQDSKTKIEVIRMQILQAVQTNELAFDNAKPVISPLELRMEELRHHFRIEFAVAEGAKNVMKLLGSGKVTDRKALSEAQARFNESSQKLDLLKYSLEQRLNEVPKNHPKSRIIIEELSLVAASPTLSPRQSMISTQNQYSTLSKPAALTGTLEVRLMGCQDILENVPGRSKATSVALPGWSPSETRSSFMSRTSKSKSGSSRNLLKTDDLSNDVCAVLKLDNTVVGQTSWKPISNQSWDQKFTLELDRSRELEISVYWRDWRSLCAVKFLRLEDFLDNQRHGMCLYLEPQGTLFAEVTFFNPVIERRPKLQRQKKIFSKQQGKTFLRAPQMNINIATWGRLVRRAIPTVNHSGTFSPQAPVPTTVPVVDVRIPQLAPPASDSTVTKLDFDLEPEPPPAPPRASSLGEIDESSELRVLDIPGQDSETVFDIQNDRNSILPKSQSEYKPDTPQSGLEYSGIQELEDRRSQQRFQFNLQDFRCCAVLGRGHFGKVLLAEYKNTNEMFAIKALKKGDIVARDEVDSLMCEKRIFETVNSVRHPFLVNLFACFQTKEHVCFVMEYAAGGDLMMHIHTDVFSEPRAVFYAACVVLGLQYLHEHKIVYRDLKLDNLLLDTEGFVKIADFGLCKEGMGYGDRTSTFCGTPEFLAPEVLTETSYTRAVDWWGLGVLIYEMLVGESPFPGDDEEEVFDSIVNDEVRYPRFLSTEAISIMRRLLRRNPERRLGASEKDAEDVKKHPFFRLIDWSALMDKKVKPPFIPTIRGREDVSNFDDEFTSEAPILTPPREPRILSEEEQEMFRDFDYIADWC

| Compound | remaining binding at 1 µM (panel of 468 kinases [1]) [%] | remaining binding at 1 µM (panel of 468 kinases [2]) [%] | remaining binding at 1 µM (panel of 468 kinases [3]) [%] | remaining binding at 1 µM (panel of 468 kinases [4]) [%] | remaining binding at 1 µM (panel of 468 kinases [5]) [%] |
| --- | --- | --- | --- | --- | --- |
| CNc1nc(Nc2ccc(S(=O)(=O)N3CCC(N4CCOCC4)CC3)cc2OC)nc2[nH]cc(Cl)c12 [Compound 12, 5-chloro-N2-(2-methoxy-4-((4-morpholinopiperidin-1-yl)sulfonyl)phenyl)-N4-methyl-7H-pyrrolo[2,3-d]pyrimidine-2,4-diamine] | 77 | 100 | 100 | 100 | 99 |
| CNc1nc(Nc2ccc(C(=O)N3CCC(N4CCOCC4)CC3)c3c2OCO3)nc2[nH]cc(Cl)c12 [Compound 75, (7-((5-chloro-4-(methylamino)-7H-pyrrolo[2,3-d]pyrimidin-2-yl)amino)benzo[d][1,3]dioxol-4-yl)(4-morpholinopiperidin-1-yl)methanone] | 89 | 90 | 97 | 100 | 91 |
| CNc1nc(Nc2ccc(P3(=O)CCN(C4CCOCC4)CC3)cc2OC)nc2[nH]cc(Cl)c12 [Compound 77, 4-(4-((5-chloro-4-(methylamino)-7H-pyrrolo[2,3-d]pyrimidin-2-yl)amino)-3-methoxyphenyl)-1-(tetrahydro-2H-pyran-4-yl)-1,4-azaphosphinane 4-oxide] | 85 | 93 | 100 | 95 | 100 |
